A word on the bioavailability: it is dose-corrected exposure relative to a reference, in per cent.

The record followed here is US20230373972A1, “PIPERAZINE DERIVATIVE, PREPARATION METHOD THEREFOR AND USE THEREOF” (Zhejiang Hisun Pharmaceutical Co., Ltd., priority 2020, published 2023).

The nature of data set [1]: Pharmacokinetics in SD rat. It counts as in vivo. The settings on record: male, plasma; for AUC(0-t): read-out: Curve area AUC0-t; for half-life: read-out: Half-life period T1/2(h) (converted). As for the experimental part: Taking a SD rat as a test animal, the SD rat was administrated with the compound of the present invention by intravenous injection and/or intragastric administration, and drug concentrations in plasma at different times were determined by a IC/MS/MS method to study pharmacokinetic characteristics of the compound of the present invention in the SD rat.
SD rats, male, 195 g to 235 g, 6 weeks old to 8 weeks old, purchased from Shanghai JieSiJie Laboratory Animal Co., Ltd.
Preparation of drug administrated by intravenous injection: a proper amount of compound to be tested was added to a proper amount of DMAC; (30% Soltol HS 15): Saline=10%: 10%: 80% (v/v/v), and shaken in a vortex manner, so as to prepare a final solution with a concentration of 0.5 mg/mL.
Preparation of drug administrated by intragastric administration: a proper amount of compound to be tested was added to a proper amount of DMAC: (30% Soltol HS 15): Saline=10%: 10%: 80% (v/v/v), and shaken in a vortex manner, so as to prepare a final solution with a concentration of 1 mg/mL.
SD rats were divided into an intravenous injection group of the compound to be tested (3 rats/group) and an intragastric administration group (3 rats/group) of the compound to be tested.
Intravenous injection group: the drug was administrated by dorsalis pedis vein injection (according to a dosage of 1 mg/kg and a volume of 2 mL/kg) without fasting.
Intragastric administration group: the drug was administrated by intragastric administration (according to a dosage of 10 mg/kg and a volume of 10 mL/kg) after fasting overnight, and food was taken 4 hours after administration.
Intravenous injection group: about 150 μL of blood was collected into an EDTA-K2 anticoagulant tube through a jugular vein 0.083 hour, 0.25 hour, 0.5 hour, 1 hour, 2 hours, 4 hours, 8 hours and 24 hours after administration.
Intragastric administration group; about 150 μL of blood was collected into an EDTA-K2 anticoagulant tube through a jugular vein 0.25 how, 0.5 hour, 1 hour, 2 hours, 4 hours, 8 hours and 24 hours after administration.
The blood sample was stored in wet ice first, and plasma was centrifugally separated within 15 minutes after sampling (centrifugation conditions: 2,000 g, 4° C., 5 minutes). The collected upper plasma was stored at −70° C. before analysis.
Contents of the compound to be tested in rat plasma after intravenous injection and intragastric administration were determined by LC-MS/MS.

Data set [2] in a line: Pharmacokinetics in cynomolgus macaque. It is filed as in vivo. To be noted: male, cynomolgus monkey, plasma, po, intragastric administration 15 mg/kg. As for the experimental part:
Taking a cynomolgus macaque as a tested animal, the cynomolgus macaque was administrated with the compound in Example 96 of the present invention by intragastric administration, and drug concentrations in plasma at different times were determined by a LC/MS/MS method to study pharmacokinetic characteristics of the compound of the present invention in the cynomolgus macaque.
Cynomolgus macaque, male, 4.6 kg to 5.7 kg, adult, purchased from Guangxi Fangcheng Gang Spring Biological Technology Development Corporation Ltd.
Preparation of drug administrated by intragastric administration: a proper amount of compound to be tested was added to a proper amount of DMAC: (30% Kolliphor HS 15): Saline=5%: 10%; 85% (v/v/v), and shaken in a vortex manner, so as to prepare a final solution with a concentration of 3 mg/mL.
Cynomolgus macaques were organized into one group, which was an intragastric administration group (3 cynomolgus macaques in single group).
Intragastric administration group: the drug was administrated by intragastric administration (according to a dosage of 15 mg/kg and a volume of 5 ml/kg) after fasting overnight, and food was taken 4 hours after administration.
Intragastric administration group: about 500 μL of blood was collected into an EDTA-K2 anticoagulant tube through a cephalic vein and a saphenous vein 0.25 hour, 0.5 hour, 1 hour, 2 hours, 4 hours, 8 hours and 24 hours after administration.
The blood sample was placed on wet ice first, and plasma was centrifugally separated within 15 minutes after sampling (centrifugation conditions: 2,000 g, 4° C., 5 minutes). The collected upper plasma was stored at −70° C. before analysis.
Contents of the compound to be tested in cynomolgus macaque plasma after intragastric administration were determined by LC-MS/MS.

Another data set concerns human plasma. Kind of data set: In-vitro anticoagulation on human plasma (APTT kit, coagulation time). To be noted: concentration of the compound when the coagulation time (APTT) was prolonged twice.
The mark [3] stands for this setting: iv, injection administration 1 mg/kg.
Where [4] appears, read: po, intragastric administration 10 mg/kg.

In the case of `COCC[C@@H](C(=O)Nc1ccc2nn(C)cc2c1)N1CC(=O)N(c2cc(Cl)ccc2-n2cc(Cl)nn2)CC1=O` [Example 96, (S)-2-(4-(5-chloro-2-(4-chloro-1H-1,2,3-triazol-1-yl)phenyl)-2,5-dioxopiperazin-1-yl)-4-methoxy-N-(2-methyl-2H-indazol-5-yl)butanamide], the AUC(0-t) was found to be 532 ± 87.8 ng·h/mL in data set [1] (setting [3]), 3860 ± 728 ng·h/mL in data set [1] (setting [4]) and 4210 ± 1240 ng·h/mL in data set [2] (read-out: Curve area AUC0-t). For the same compound, the results for the half-life in data set [1] (setting [3]), in data set [1] (setting [4]) and in data set [2] (read-out: Half-life period T1/2(h) (converted)) were 0.942 ± 0.078 h, 1.54 ± 0.784 h and 3.71 ± 0.42 h, respectively. The bioavailability in data set [1] (po, intragastric 10 mg/kg vs injection 1 mg/kg, read-out: Bioavailability F(%)) worked out at 72.5 ± 13.7%. The Cmax was found to be 1790 ± 510 ng/mL in data set [1] (po, intragastric administration 10 mg/kg, read-out: Blood concentration Cmax) and 834 ± 482 ng/mL in data set [2] (read-out: Blood concentration Cmax). Besides, the “CT2” value with human plasma worked out at 5.3 µM.
